{"source": "patent CN116139126A", "about": "“表没食子儿茶素-3-没食子酸酯在制备嗜水气单胞菌的群体感应抑制剂中的应用” (Yueyang Yumeikang Bio Tech Co ltd, priority 2023, dated 2023)", "key": {"[1]": {"system": "Aeromonas hydrophila (嗜水气单胞菌)", "assay": "MIC/MBC by twofold dilution in TSB", "type": "cell-based, Aeromonas hydrophila AH08", "settings": "30 °C, 24 h; for MIC: TSB"}, "[2]": {"system": "Aeromonas hydrophila (嗜水气单胞菌)", "assay": "Growth curve of A. hydrophila", "type": "cell-based, Aeromonas hydrophila AH08"}, "[3]": {"system": "Aeromonas hydrophila biofilm (嗜水气单胞菌生物膜)", "assay": "Biofilm inhibition test (crystal violet)", "type": "cell-based, Aeromonas hydrophila AH08", "settings": "for inhibition at 128 µg/mL: Aeromonas hydrophila, 128 μg/ml, 30 °C, read-out: inhibition rate of biofilm"}, "[4]": {"system": "AI-2 of Aeromonas hydrophila (AI-2)", "assay": "AI-2 bioluminescence assay with V. harveyi BB170 reporter", "type": "cell-based, Aeromonas hydrophila AH08", "settings": "compared with control (no EGCG); 16-256 μg/mL"}, "[5]": {"system": "virulence factor and QS genes of Aeromonas hydrophila (嗜水气单胞菌毒力因子及QS基因)", "assay": "qRT-PCR of quorum sensing and virulence genes", "type": "cell-based, Aeromonas hydrophila AH08", "settings": "normalised to rpob"}, "[6]": {"system": "Aeromonas hydrophila (嗜水气单胞菌)", "assay": "Protection of zebrafish infected with A. hydrophila (survival)", "type": "in vivo, Aeromonas hydrophila AH08; zebrafish", "settings": "for time of death of the first zebrafish: injected after intraperitoneal infection; for survival rate: model group 0"}, "[7]": {"system": "Aeromonas hydrophila (嗜水气单胞菌)", "type": "in vivo, Aeromonas hydrophila AH08; zebrafish", "settings": "for reduction of bacterial adhesion CFU: compared with model group"}, "[8]": {"system": "Aeromonas hydrophila (嗜水气单胞菌)", "assay": "Histopathology of infected zebrafish (gill, muscle, liver; H&E)", "type": "in vivo, Aeromonas hydrophila AH08; zebrafish"}, "[9]": {"system": "Aeromonas hydrophila (嗜水气单胞菌)", "settings": "swarming and swimming, 64-256 μg/mL"}, "[10]": {"system": "Aeromonas hydrophila (嗜水气单胞菌)", "assay": "microbe, parasite or virus in culture", "settings": "18 h"}, "[11]": {"system": "pro-inflammatory cytokine genes IL-1β, IL-8, IL-6, TNF-α (促炎细胞因子基因)", "assay": "Pro-inflammatory cytokine gene expression in zebrafish intestine (qRT-PCR)", "settings": "6 h after infection"}, "[12]": {"settings": "read-out: inhibition rate of swarming"}, "[13]": {"settings": "read-out: inhibition rate of swimming"}}, "note": "“Also recorded” adds a separate entry of the source. Like-named read-outs stand apart in the source and are kept apart here.", "data": [{"compound": "O=C(O[C@@H]1Cc2c(O)cc(O)cc2O[C@@H]1c1cc(O)c(O)c(O)c1)c1cc(O)c(O)c(O)c1", "note": "[EGCG, 表没食子儿茶素-3-没食子酸酯]", "values": [{"measurement": "MBC", "setting": "[1]; Aeromonas hydrophila, TSB agar", "result": 4100, "unit": "µg/mL"}, {"measurement": "MIC", "setting": "[1]; Aeromonas hydrophila, read-out: MIC", "result": 1020, "unit": "µg/mL"}, {"measurement": "MIC", "setting": "[1]", "result": 1024, "unit": "µg/mL"}, {"measurement": "inhibition of growth after 12 h (growth curve)", "setting": "[2]; 0-256 μg/mL, 30 °C, after 12 h", "result": "没有明显的抑制作用"}, {"measurement": "effect on lag phase (growth curve)", "setting": "[2]; 0-256 μg/mL, 30 °C, od600nm", "result": "增加了细菌的滞后期; also recorded: 延缓了嗜水气单胞菌进入对数生长期的时间"}, {"measurement": "bactericidal effect", "setting": "[2]; 64-256 μg/ml, compared with control without EGCG", "result": "不直接产生杀菌作用"}, {"measurement": "effect on growth after 24 h", "setting": "[2]; sub-MIC, after 24 h", "result": "没有明显影响"}, {"measurement": "inhibition of biofilm formation (in words)", "setting": "[3]; 16-256 μg/mL", "result": "显著抑制"}, {"measurement": "concentration dependence of biofilm inhibition", "setting": "[3]; 24 h", "result": "呈浓度依赖性"}, {"measurement": "inhibition at 128 µg/mL", "setting": "[3]; 24 h", "result": 38.3, "unit": "%"}, {"measurement": "inhibition at 128 µg/mL", "setting": "[3]; 48 h", "result": 26.6, "unit": "%"}, {"measurement": "AI-2 secreted by A. hydrophila", "setting": "[4]", "result": "明显减少,并呈浓度依赖性"}, {"measurement": "expression of LuxR", "setting": "[5]; AI-1 related gene", "result": "不影响"}, {"measurement": "expression of ahyI", "setting": "[5]; AI-1 related gene", "result": "显著抑制"}, {"measurement": "expression of ahyR", "setting": "[5]; AI-1 related gene", "result": "显著抑制"}, {"measurement": "expression of LuxS", "setting": "[5]; AI-2 synthase", "result": "显著抑制"}, {"measurement": "expression of QseB", "setting": "[5]; AI-3 related gene", "result": "显著抑制"}, {"measurement": "expression of ahyB", "setting": "[5]; elastase gene", "result": "显著下调"}, {"measurement": "expression of flgL", "setting": "[5]; flagellar gene", "result": "显著下调"}, {"measurement": "expression of ahh1", "setting": "[5]; hemolysin gene", "result": "显著下调"}, {"measurement": "expression of hly", "setting": "[5]; hemolysin gene", "result": "显著下调"}, {"measurement": "time of death of the first zebrafish", "setting": "[6]; 50 mg/kg", "result": 18, "unit": "h"}, {"measurement": "time of death of the first zebrafish", "setting": "[6]; 100 mg/kg", "result": 48, "unit": "h"}, {"measurement": "survival rate", "setting": "[6]; high dose group (100 mg/kg), 48 h after infection", "result": 88.9, "unit": "%"}, {"measurement": "survival rate (in words)", "setting": "[6]; low dose group (10 mg/kg), 48 h after infection, compared with model group", "result": "与模型组的生存率相同"}, {"measurement": "survival rate", "setting": "[6]; medium dose group (50 mg/kg), 48 h after infection", "result": 88.9, "unit": "%"}, {"measurement": "reduction of bacterial adhesion CFU", "setting": "[7]; 10 mg/kg", "result": 21.22, "unit": "%"}, {"measurement": "reduction of bacterial adhesion CFU", "setting": "[7]; 50 mg/kg", "result": 33.47, "unit": "%"}, {"measurement": "reduction of bacterial adhesion CFU", "setting": "[7]; 100 mg/kg", "result": 38.00, "unit": "%"}, {"measurement": "adhesion of A. hydrophila to zebrafish (in words)", "setting": "[7]; after EGCG treatment", "result": "显著降低"}, {"measurement": "bacterial load of zebrafish (in words)", "setting": "[7]; after EGCG treatment", "result": "显著降低"}, {"measurement": "protection of tissues of infected zebrafish", "setting": "[8]; dose-dependent", "result": "显著的保护作用"}, {"measurement": "pathological damage caused by A. hydrophila", "setting": "[8]; liver, muscle and gill of infected zebrafish", "result": "明显改善"}, {"measurement": "inflammatory cell infiltration", "setting": "[8]; zebrafish liver, muscle and gill", "result": "显著减少"}, {"measurement": "inhibition of motility (in words)", "setting": "[9]", "result": "显著抑制嗜水气单胞菌的运动性,且呈浓度依赖性"}, {"measurement": "inhibition at 128 µg/mL", "setting": "[10]; [12]", "result": 29.7, "unit": "%"}, {"measurement": "inhibition at 256 µg/mL", "setting": "[10]; [12]", "result": 33, "unit": "%"}, {"measurement": "inhibition at 64 µg/mL", "setting": "[10]; [13]", "result": 16, "unit": "%"}, {"measurement": "inhibition at 128 µg/mL", "setting": "[10]; [13]", "result": 28.3, "unit": "%"}, {"measurement": "inhibition at 256 µg/mL", "setting": "[10]; [13]", "result": 66, "unit": "%"}, {"measurement": "expression of IL-1β", "setting": "[11]", "result": "显著抑制"}, {"measurement": "expression of IL-6", "setting": "[11]", "result": "显著抑制"}, {"measurement": "expression of IL-8", "setting": "[11]", "result": "显著抑制"}, {"measurement": "expression of TNF-α", "setting": "[11]", "result": "显著抑制"}]}]}
